In paper PMC4912218, “Targeted metabolomics of Gammarus pulex following controlled exposures to selected pharmaceuticals in water” (The Science of the Total Environment, 2016):
In brackets after ≈: the same amount, converted by molar mass.

Tests used:
[1] = in vivo; settings: in vivo
Procedure: (§1) From these toxicity profiles the NOAEL and the LOAEL were determined. Exposure experiments were performed in Pyrex® beakers, each containing 200 mL of AFW at 15 °C and ten adult animals (> 5 mg wet weight, ww). Live/dead animals were counted after 24 h by gently prodding and observing movement of appendages. The pharmaceutical concentrations tested were in the range of 0.01 to 250 mg L^− 1. […] Concentrations where 100, 50 and 0% of the animals died were repeated in duplicate or triplicate.

[2] = system: Gammarus pulex; assay: in vivo; settings: G. pulex
Procedure: as §1

[3] = Internal pharmaceutical residue concentration in exposed G. pulex (SPE, LC-MS/MS); settings: C1 dose, 24 h
Procedure: Quantification of pharmaceutical concentrations in G. pulex at the 24 h exposure interval was performed. Separate exposures were set up in triplicate in beakers containing 200 mL of exposure solution (AFW spiked with the respective C1 pharmaceutical dose) and 20 organisms. At 24 h, animals were immediately rinsed with ultra-pure water and then frozen at − 20 °C for 24 h. […] Prior to extraction, frozen G. pulex samples were lyophilised at − 50 °C under vacuum for 48 h and milled in an agate mortar to a fine powder. For each analysis, 20 mg of a lyophilised composite sample were transferred to 2 mL polypropylene tubes (Eppendorf®, Hamburg, Germany), for solid-liquid extraction (SLE). […]
Briefly, 50 mg of lyophilised G. pulex were extracted in 5 mL of acetonitrile and pre-concentrated on Oasis HLB SPE cartridges (6 mL, 200 mg sorbent). […] Organic acids, nucleosides, nucleotides, sugars and AAs were measured using LC–HRMS. […]
Here, pharmaceutical residue quantification in exposed G. pulex was performed by a 3-point matrix-matched calibration curve. […] L-ornithine hydrochloride, inosine, thymidine, taurine, 1.7-dimethylxanthine and (−)-riboflavin were quantified using either ^13C,^15N-proline or ^13C,^15N-tyrosine as the internal standard. The remaining 15 compounds were quantified using external calibration and the target compound itself was used as external standard. […]

Q: Which LC50 at 24 h [1] does the source give for `Oc1cc(Cl)ccc1Oc1ccc(Cl)cc1Cl` [Triclosan] here?
A: 0.57 µg/mL (≈ 1.97 µM)

Q: What about the LC10 ([2]; 24 h) of the same compound?
A: 0.20 µg/mL (≈ 0.691 µM)

Q: And the “LOAEL (C2)” value ([2]; 24 h acute toxicity profile)?
A: 0.3 mg L^− 1

Q: What about the “NOAEL (C1)” value ([2]; 24 h acute toxicity profile) of the same compound?
A: 0.1 mg L^− 1

Q: And the “internal concentration in G. pulex (detection)” value [3]?
A: not quantifiable
